# Measured values taken from US20100197608A1, “USE OF MELANOTROPHIN-POTENTIATING FACTOR AS A THERAPEUTIC AGENT” (priority 2007, published 2010).
# Where a SMILES comes first, the peptide text is derived from it.
# Key:
# [1] = tested on: HIV-1IIIB; assay: HIV-1 antiviral assay (CPE reduction) in CEM-SS cells; format: cell-based; conditions: peptide 10 micrograms per ml; 6 days post-infection; MTS
# [2] = tested on: CEM-SS cells; assay: Cytotoxicity in CEM-SS cells (MTS); conditions: peptide 10 micrograms per ml
# [3] = tested on: MRC-5 cells; conditions: human, 6 days
# [4] = tested on: MRSA; conditions: 5 micrograms per ml
# [5] = Cytotoxicity in HepG2-2.2.15 cells (dye uptake); conditions: human
# [6] = tested on: Pseudomonas aeruginosa; format: cell-based; conditions: 5 micrograms per ml
# [7] = tested on: Streptococcus pneumoniae; format: cell-based; conditions: 5 micrograms per ml
# [8] = in vitro; conditions: human, CEM-SS cells
# [9] = in vitro; conditions: human, MRC-5 cells
structure (smiles),measurement,setting,value
Cc1cn([C@H]2C[C@H](N=[N+]=[N-])[C@@H](CO)O2)c(=O)[nH]c1=O [AZT],% CPE reduction in HIV-1 infected CEM-SS cells,[1],99%
same,% Cell viability,[2],97%
Nc1nc(O)c2ncn(COC(CO)CO)c2n1 [Ganciclovir],% Cell viability,[3],100%
"CC(C)(C)NC(=O)[C@@H]1CN(Cc2cccnc2)CCN1C[C@@H](O)C[C@@H](Cc1ccccc1)C(=O)N[C@H]1c2ccccc2C[C@H]1O [Indinavir, indinavir]",% CPE reduction in HIV-1 infected CEM-SS cells,[1],100%
"NCCCC[C@H](NC(=O)[C@@H](N)CCCCN)C(=O)NCC(=O)N[C@@H](CCC(=O)O)C(=O)O [MPF, Lys-Lys-Gly-Glu-OH] (H-KKGE-OH)",% inhibition,[4],0.0%
same,"viability at 144 h, 10 micrograms per ml",[5],100%
same,% inhibition,[6],0.0%
same,% inhibition,[7],0.0%
same,viability at 10 micrograms per ml,[8],100%
same,viability at 144 h,[9],96.1%
